# Laboratory results taken from patent US5126436A (priority 1989, dated 1992).
# Tests used:
# KB = assay: Cell-killing activity; type: cell-based; conditions: Homo sapiens; KB cells; read-out: ID50 (concentration at which 50% of cancer cells are killed)
# Alternaria mali IFO 8984 = type: cell-based; conditions: IFO8984, 20 μg/disc (diameter 8 mm), read-out: Inhibition Circle
# From the text: (§1) The value in paretheses in the table denotes a partial inhibition.
# Escherichia coli BE 1186 = type: cell-based; conditions: BE1186, 20 μg/disc (diameter 8 mm), read-out: Inhibition Circle
# From the text: as §1
# [1] = system: Colletotrichum lagenarium IFO 7513; type: cell-based; conditions: Colletotrichum orbiculare, IFO7513; 20 μg/disc (diameter 8 mm); value in parentheses denotes a partial inhibition; read-out: Inhibition Circle
# From the text: as §1
# Escherichia coli AB 1157 = type: cell-based; conditions: AB1157, 20 μg/disc (diameter 8 mm), read-out: Inhibition Circle
# From the text: as §1
# Chlorella vulgaris = type: cell-based; conditions: 20 μg/disc (diameter 8 mm), read-out: Inhibition Circle
# From the text: as §1
# [2] = system: Pseudomonas aeruginosa IFO 13130; type: cell-based; conditions: IFO13130, 20 μg/disc (diameter 8 mm), read-out: Inhibition Circle
# From the text: as §1
# [3] = system: Candida albicans IFO 1594; type: cell-based; conditions: IFO1594, 20 μg/disc (diameter 8 mm), read-out: Inhibition Circle
# From the text: as §1
# Solubility = type: physicochemical
# [4] = system: Pyricularia oryzae IFO 5994; assay: microbe, parasite or virus in culture; type: cell-based; conditions: IFO5994, read-out: Inhibition Circle
# HeLa = assay: Cell-killing activity; type: cell-based; conditions: Homo sapiens; HeLa cells; read-out: ID50 (concentration at which 50% of cancer cells are killed)
smiles,measurement,setting,value
CC=C(C)C(O)C(C)C=C(C)C=CCC(C)=CCc1nc(OC)c(OC)c(OC2OC(C)C(O)C(O)C2O)c1C (stereo not drawn),IC50,KB,0.74 µg/mL
same,zone of inhibition at 20 µg/disc,Alternaria mali IFO 8984,0 mm
same,zone of inhibition at 20 µg/disc,Escherichia coli BE 1186,0 mm
same,zone of inhibition at 20 µg/disc,[1],13.3 mm
same,zone of inhibition at 20 µg/disc,Escherichia coli AB 1157,0 mm
same,zone of inhibition at 20 µg/disc,Chlorella vulgaris,0 mm
same,zone of inhibition at 20 µg/disc,[2],0 mm
same,zone of inhibition at 20 µg/disc,[3],0 mm
same,Solubility,"Solubility; chloroform, dimethyl sulfoxide, methanol, acetone","Soluble in chloroform, dimethyl sulfoxide, methanol and acetone"
same,Solubility,"Solubility; n-hexane, water",Insoluble in n-hexane and water
same,zone of inhibition at 20 µg/disc,[4],19.1 mm
same,IC50,HeLa,2.8 µg/mL
